Assay results: article PMC9687812, “Discovery of Trace Amine-Associated Receptor 1 (TAAR1) Agonist 2-(5-(4′-Chloro-[1,1′-biphenyl]-4-yl)-4H-1,2,4-triazol-3-yl)ethan-1-amine (LK00764) for the Treatment of Psychotic Disorders” (Biomolecules, 2022)
Where two headings read alike, the source gives them in different places. Values belong to the molecule of their own block, whether it stands above or below them.

Experiments:
TAAR1 = target: T1, TAAR1 (Homo sapiens, UniProt Q96RJ0); assay: BRET-based cellular cAMP (EPAC biosensor) assay of TAAR1 agonism in transfected HEK-293 cells; details: for Emax: HEK293, read-out: Emax: maximum observed activation of TAAR1 relative to that observed for 1 μM of β-PEA; for Emax: maximum observed activation of TAAR1 relative to that observed for 1 μM of β-PEA: relative to 1 μM β-PEA, mean from 3 BRET assays, errors ±5–10%
T1 sequence (Q96RJ0 1-339): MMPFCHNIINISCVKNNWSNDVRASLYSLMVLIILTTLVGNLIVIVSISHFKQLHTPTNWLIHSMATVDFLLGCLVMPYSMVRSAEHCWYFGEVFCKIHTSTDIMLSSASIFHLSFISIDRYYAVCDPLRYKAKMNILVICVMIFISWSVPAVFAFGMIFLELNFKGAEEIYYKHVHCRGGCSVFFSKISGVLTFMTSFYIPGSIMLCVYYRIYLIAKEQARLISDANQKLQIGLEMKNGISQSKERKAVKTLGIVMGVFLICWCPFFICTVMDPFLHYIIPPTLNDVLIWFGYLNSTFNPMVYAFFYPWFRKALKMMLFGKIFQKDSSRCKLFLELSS

[1] = TAAR1 activation, BRET assay, HEK-293, mean from 3 assays

Molecule: Cl.NCCc1nnc(-c2ccc(-c3ccc(F)cc3F)cc2)[nH]1 [Compound 61, 2-(5-(2′,4′-Difluoro-(1,1′-biphenyl)-4-yl)-4H-1,2,4-triazol-3-yl)ethan-1-amine Hydrochloride]
EC50 (TAAR1): 0.018 µM
Emax (TAAR1): 93%
melting point: 251 to 253 °C

Molecule: Cl.NCCc1nnc(-c2ccc(OCc3cccc(F)c3)cc2)[nH]1 [Compound 44, 2-(5-(4-[(3-Fluorobenzyl)oxy]phenyl)-4H-1,2,4-triazol-3-yl)ethan-1-amine Hydrochloride]
EC50 (TAAR1): 0.03 µM
Emax (TAAR1): 112%
melting point: 214 to 216 °C

Molecule: Cc1ccc(Oc2cccc(-c3nnc(CCN)[nH]3)c2)c(C)c1.Cl.Cl [Compound 52, 2-(5-(3-[2,4-Dimethylphenoxy]phenyl)-4H-1,2,4-triazol-3-yl)ethan-1-amine Hydrochloride Hydrochloride]
EC50 (TAAR1): > 1 µM
Emax (TAAR1): 79%
melting point: 308 to 310 °C

Molecule: Cl.NCCc1nnc(-c2ccc(OCc3ccccc3F)cc2)[nH]1 [Compound 43, 2-(5-(4-[(2-Fluorobenzyl)oxy]phenyl)-4H-1,2,4-triazol-3-yl)ethan-1-amine Hydrochloride]
EC50 (TAAR1): 0.045 µM
Emax (TAAR1): 114%
melting point: 232 to 235 °C

Molecule: Cc1cc(C)cc(-c2nnc(CCN)[nH]2)c1.Cl [Compound 31, 2-(5-(3,5-Dimethylphenyl)-4H-1,2,4-triazol-3-yl)ethan-1-amine Hydrochloride]
EC50 (TAAR1): 0.813 µM
Emax (TAAR1): 117%
melting point: 232 to 234 °C

Molecule: Cl.NCCc1nnc(-c2cccc(-c3ccc(OC(F)(F)F)cc3)c2)[nH]1 [Compound 67, 2-(5-(4′-(Trifluoromethoxy)-(1,1′-biphenyl)-3-yl)-4H-1,2,4-triazol-3-yl)ethan-1-amine Hydrochloride]
EC50 (TAAR1): 0.096 µM
Emax (TAAR1): 94%
melting point: 253 to 257 °C

Molecule: Cc1cc(-c2nnc(CCN)[nH]2)ccc1O.Cl [Compound 57, 4-(5-(2-Aminoethyl)-4H-1,2,4-triazol-3-yl)-2-methylphenol Hydrochloride]
EC50 (TAAR1): > 1 µM
Emax (TAAR1): 90%
melting point: 158 to 160 °C

Molecule: Cl.NCCc1nnc(-c2ccc(-c3cc(F)cc(F)c3)cc2)[nH]1 [Compound 65, 2-(5-(3′,5′-Difluoro-(1,1′-biphenyl)-4-yl)-4H-1,2,4-triazol-3-yl)ethan-1-amine Hydrochloride]
EC50 (TAAR1): 0.013 µM
Emax (TAAR1): 105%
melting point: 260 to 262 °C

Molecule: Cl.NCCc1nnc(-c2cccc(O)c2)[nH]1 [Compound 55, 3-(5-(2-Aminoethyl)-4H-1,2,4-triazol-3-yl)phenol Hydrochloride]
EC50 (TAAR1): > 1 µM
Emax (TAAR1): 88%
melting point: 234 to 235 °C

Molecule: CCOc1ccc(-c2nnc(CCN)[nH]2)cc1.Cl [Compound 25, 2-(5-(4-Ethoxyphenyl)-4H-1,2,4-triazol-3-yl)ethan-1-amine Hydrochloride]
EC50 (TAAR1): 0.55 µM
Emax (TAAR1): 139%
melting point: 235 to 236 °C

Molecule: Cl.NCCc1nnc(-c2ccc(C(F)(F)F)cc2)[nH]1 [Compound 15, 2-(5-(4-[Trifluoromethyl]phenyl)-4H-1,2,4-triazol-3-yl)ethan-1-amine Hydrochloride]
EC50 (TAAR1; [1]): inactive
Emax: maximum observed activation of TAAR1 relative to that observed for 1 μM of β-PEA (TAAR1): inactive
melting point: 254 to 255 °C

Molecule: Cl.NCCc1nnc(-c2ccc(OCc3ccccc3)cc2)[nH]1 [Compound 19, 2-(5-(4-(Benzyloxy)phenyl)-4H-1,2,4-triazol-3-yl)ethan-1-amine Hydrochloride]
EC50 (TAAR1): 0.026 µM
Emax (TAAR1): 113%
EC50 (TAAR1; [1]): double-digit nanomolar range
melting point: 238 to 240 °C

Molecule: COc1ccc(-c2nnc(CCN)[nH]2)cc1.Cl [Compound 6, 2-(5-(4-Methoxyphenyl)-4H-1,2,4-triazol-3-yl)ethan-1-amine Hydrochloride]
EC50 (TAAR1): > 1 µM
Emax (TAAR1): 56%
melting point: 248 to 250 °C

Molecule: Cl.NCCc1nnc(-c2ccc(-c3cccc(C(F)(F)F)c3)cc2)[nH]1 [Compound 63, 2-(5-(3′-Trifluoromethyl-(1,1′-biphenyl)-4-yl)-4H-1,2,4-triazol-3-yl)ethan-1-amine Hydrochloride]
EC50 (TAAR1): 0.25 µM
Emax (TAAR1): 76%
melting point: 210 to 212 °C

Molecule: Cc1ccc(-c2nnc(CCN)[nH]2)cc1C.Cl [Compound 37, 2-(5-(3,4-Dimethylphenyl)-4H-1,2,4-triazol-3-yl)ethan-1-amine Hydrochloride]
EC50 (TAAR1): > 1 µM
Emax (TAAR1): 70%
melting point: 231 to 234 °C

Molecule: Cl.NCCc1nnc(COc2ccccc2)[nH]1 [Compound 17, 2-(5-(Phenoxymethyl)-4H-1,2,4-triazol-3-yl)ethan-1-amine Hydrochloride]
EC50 (TAAR1; [1]): inactive
Emax: maximum observed activation of TAAR1 relative to that observed for 1 μM of β-PEA (TAAR1): inactive
melting point: 206 to 207 °C

Molecule: Cl.NCCc1nnc(-c2ccc(OC(F)(F)F)cc2)[nH]1 [Compound 9, 2-(5-(4-[Trifluoromethoxy]phenyl)-4H-1,2,4-triazol-3-yl)ethan-1-amine Hydrochloride]
EC50 (TAAR1): 0.31 µM
Emax (TAAR1): 116%
melting point: 253 to 254 °C

Molecule: Cc1ccc(Oc2ccc(-c3nnc(CCN)[nH]3)cc2)cc1C.Cl [Compound 51, 2-(5-(4-[3,4-Dimethylphenoxy]phenyl)-4H-1,2,4-triazol-3-yl)ethan-1-amine Hydrochloride]
EC50 (TAAR1): 0.9 µM
Emax (TAAR1): 77%
melting point: 201 to 203 °C

Molecule: Cc1cc(-c2nnc(CCN)[nH]2)ccc1OCc1ccccc1F.Cl [Compound 46, 2-(5-(4-[(2-Fluorobenzyl)oxy]-3-methylphenyl)-4H-1,2,4-triazol-3-yl)ethan-1-amine Hydrochloride]
EC50 (TAAR1): 0.398 µM
Emax (TAAR1): 82%
melting point: 234 to 236 °C

Molecule: Cl.NCCc1nnc(C(c2ccccc2)c2ccccc2)[nH]1 [Compound 13, 2-(5-(Diphenylmethyl)-4H-1,2,4-triazol-3-yl)ethan-1-amine Hydrochloride]
EC50 (TAAR1; [1]): inactive
Emax: maximum observed activation of TAAR1 relative to that observed for 1 μM of β-PEA (TAAR1): inactive
melting point: 236 to 237 °C

Molecule: Cc1ccc(Oc2ccc(-c3nnc(CCN)[nH]3)cc2)cc1.Cl [Compound 54, 2-(5-(4-[4-Methylphenoxy]phenyl)-4H-1,2,4-triazol-3-yl)ethan-1-amine Hydrochloride]
EC50 (TAAR1): 0.15 µM
Emax (TAAR1): 94%
melting point: 234 to 236 °C

Molecule: Cl.NCCc1nnc(-c2ccc(F)cc2)[nH]1 [Compound 34, 2-(5-(4-Fluorophenyl)-4H-1,2,4-triazol-3-yl)ethan-1-amine Hydrochloride]
EC50 (TAAR1): > 1 µM
Emax (TAAR1): 169%
melting point: 253 to 256 °C

Molecule: CCCCOc1ccc(-c2nnc(CCN)[nH]2)cc1.Cl [Compound 40, 2-(5-(4-Butoxyphenyl)-4H-1,2,4-triazol-3-yl)ethan-1-amine Hydrochloride]
EC50 (TAAR1): 0.034 µM
Emax (TAAR1): 107%
EC50 (TAAR1; [1]): double-digit nanomolar range
melting point: 205 to 207 °C

Molecule: Cl.NCCc1nnc(-c2cccc(-c3ccc(F)cc3F)c2)[nH]1 [Compound 66, 2-(5-(4′-(2′,4′-Difluoro-(1,1′-biphenyl)-3-yl)-4H-1,2,4-triazol-3-yl)ethan-1-amine Hydrochloride]
EC50 (TAAR1; [1]): 0.3 µM

Molecule: Cl.NCCc1nnc(-c2ccc(OCc3ccccc3F)c(I)c2)[nH]1 [Compound 56, 2-(5-(4-[(2-Fluorobenzyl)oxy]-3-iodophenyl)-4H-1,2,4-triazol-3-yl)ethan-1-amine Hydrochloride]
EC50 (TAAR1): 0.316 µM
Emax (TAAR1): 87%
melting point: 208 to 209 °C

EC50 (TAAR1; [1]): > 1 µM
Emax: maximum observed activation of TAAR1 relative to that observed for 1 μM of β-PEA (TAAR1): 71
Molecule: 2-(5-(4-Ethylphenyl)-4H-1,2,4-triazol-3-yl)ethan-1-amine Hydrochloride [Compound 26]

Molecule: Cl.NCCc1nnc(-c2cccc(C(F)(F)F)c2)[nH]1 [Compound 8, 2-(5-(3-[Trifluoromethyl]phenyl)-4H-1,2,4-triazol-3-yl)ethan-1-amine Hydrochloride]
EC50 (TAAR1; [1]): 0.21 µM
Emax: maximum observed activation of TAAR1 relative to that observed for 1 μM of β-PEA (TAAR1): 108

Molecule: Cl.NCCc1nnc(-c2cccc(-c3ccc(F)cc3F)c2)[nH]1 [Compound 66]
Emax: maximum observed activation of TAAR1 relative to that observed for 1 μM of β-PEA (TAAR1): 91

EC50 (TAAR1; [1]): inactive
Emax: maximum observed activation of TAAR1 relative to that observed for 1 μM of β-PEA (TAAR1): inactive
Molecule: 2-(5-(2-[3,4-Difluorophenoxy]phenyl)-4H-1,2,4-triazol-3-yl) Hydrochloride [Compound 50]

Molecule: Cl.NCCc1nnc(-c2cccc(C(F)(F)F)c2)[nH]1 [Compound 18]
EC50 (TAAR1; [1]): inactive
Emax: maximum observed activation of TAAR1 relative to that observed for 1 μM of β-PEA (TAAR1): inactive

EC50 (TAAR1; [1]): > 1 µM
Emax: maximum observed activation of TAAR1 relative to that observed for 1 μM of β-PEA (TAAR1): 69
Molecule: Cl.NCCc1nnc(-c2ccccc2[N+](=O)[O-])[nH]1 [Compound 27, 2-(5-(2-Nitrophenyl)-4H-1,2,4-triazol-3-yl)ethan-1-amine Hydrochloride]

EC50 (TAAR1; [1]): inactive
Emax: maximum observed activation of TAAR1 relative to that observed for 1 μM of β-PEA (TAAR1): inactive
Molecule: 2-(5-(3-Methyl-4-[([4-(trifluoromethyl)benzyl]oxy)phenyl]-4H-1,2,4-triazol-3-yl)) Hydrochloride [Compound 49]

EC50 (TAAR1; [1]): inactive
Emax: maximum observed activation of TAAR1 relative to that observed for 1 μM of β-PEA (TAAR1): inactive
Molecule: CN(C)c1cccc(-c2nnc(CCN)[nH]2)c1.Cl [Compound 24, 3-(5-(2-Aminoethyl)-4H-1,2,4-triazol-3-yl)-N,N-dimethylaniline Hydrochloride]
